The values that follow come from US9550775B2, “Substituted triazolopyridines and methods of use thereof” (GENENTECH, INC., priority 2013, dated 2017).

Test [1] has as its target hNav1.7 (Homo sapiens (Human), UniProt Q15858). The experiment in a line: Tritiated sulfonamide competitive binding to membranes from cells expressing hNav1.7 and the β1 subunit.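 Further: displacement of the tritiated ligand from recombinant cell membranes, read by liquid scintillation counting of filter-bound radioactivity, nonspecific binding defined with 1 µM unlabelled compound.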 As to conditions: 100 pM [3H]compound, 18 h, room temperature; inactivated state of NaV1.7 membrane binding; read-out: NaV1.7 Ligand Binding Assay (IC50).
For test [2], the target named is human NaV1.7 (with β1 subunit) stably expressed in HEK-293 cells (Homo sapiens (Human), UniProt Q15858). The experiment in a line: Patch voltage clamp electrophysiology assay (EP), inactivated-state block. It is filed as cell-based. Particulars: membrane potential held at -60 mV; read-out: affinity for the inactivated state of NaV1.7. The procedure:
Patch voltage clamp electrophysiology allows for the direct measurement and quantification of block of voltage-gated sodium channels (NaV's), and allows the determination of the time- and voltage-dependence of block which has been interpreted as differential binding to the resting, open, and inactivated states of the sodium channel (Hille, B., Journal of General Physiology (1977), 69: 497-515).
Currents were recorded at 40 kHz sampling frequency, filtered at […], and stored using a Digidata-1322A analogue/digital interface with the pClamp software (Axon Instruments). Series resistance compensation was applied (60-80%). […] All statistics in this study are given as mean±SD.
The membrane potential was maintained at a voltage where inactivation of the channel is complete (which was −60 mV for both NaV1.7 and NaV1.5). The voltage is then stepped back to a very negative (Vhold=[…]) voltage for 20 ms and then a test pulse is applied to quantify the compound block. The 20 ms brief repolarization was long enough for compound-free channels to completely recover from fast inactivation, but the compound-bound channels recovered more slowly such that negligible recovery could occur during this interval. The percent decrease in sodium current following wash-on of compound was taken as the percent block of sodium channels.

Chain of hNav1.7 (Q15858 other isoform, or with tags, fused parts or gaps): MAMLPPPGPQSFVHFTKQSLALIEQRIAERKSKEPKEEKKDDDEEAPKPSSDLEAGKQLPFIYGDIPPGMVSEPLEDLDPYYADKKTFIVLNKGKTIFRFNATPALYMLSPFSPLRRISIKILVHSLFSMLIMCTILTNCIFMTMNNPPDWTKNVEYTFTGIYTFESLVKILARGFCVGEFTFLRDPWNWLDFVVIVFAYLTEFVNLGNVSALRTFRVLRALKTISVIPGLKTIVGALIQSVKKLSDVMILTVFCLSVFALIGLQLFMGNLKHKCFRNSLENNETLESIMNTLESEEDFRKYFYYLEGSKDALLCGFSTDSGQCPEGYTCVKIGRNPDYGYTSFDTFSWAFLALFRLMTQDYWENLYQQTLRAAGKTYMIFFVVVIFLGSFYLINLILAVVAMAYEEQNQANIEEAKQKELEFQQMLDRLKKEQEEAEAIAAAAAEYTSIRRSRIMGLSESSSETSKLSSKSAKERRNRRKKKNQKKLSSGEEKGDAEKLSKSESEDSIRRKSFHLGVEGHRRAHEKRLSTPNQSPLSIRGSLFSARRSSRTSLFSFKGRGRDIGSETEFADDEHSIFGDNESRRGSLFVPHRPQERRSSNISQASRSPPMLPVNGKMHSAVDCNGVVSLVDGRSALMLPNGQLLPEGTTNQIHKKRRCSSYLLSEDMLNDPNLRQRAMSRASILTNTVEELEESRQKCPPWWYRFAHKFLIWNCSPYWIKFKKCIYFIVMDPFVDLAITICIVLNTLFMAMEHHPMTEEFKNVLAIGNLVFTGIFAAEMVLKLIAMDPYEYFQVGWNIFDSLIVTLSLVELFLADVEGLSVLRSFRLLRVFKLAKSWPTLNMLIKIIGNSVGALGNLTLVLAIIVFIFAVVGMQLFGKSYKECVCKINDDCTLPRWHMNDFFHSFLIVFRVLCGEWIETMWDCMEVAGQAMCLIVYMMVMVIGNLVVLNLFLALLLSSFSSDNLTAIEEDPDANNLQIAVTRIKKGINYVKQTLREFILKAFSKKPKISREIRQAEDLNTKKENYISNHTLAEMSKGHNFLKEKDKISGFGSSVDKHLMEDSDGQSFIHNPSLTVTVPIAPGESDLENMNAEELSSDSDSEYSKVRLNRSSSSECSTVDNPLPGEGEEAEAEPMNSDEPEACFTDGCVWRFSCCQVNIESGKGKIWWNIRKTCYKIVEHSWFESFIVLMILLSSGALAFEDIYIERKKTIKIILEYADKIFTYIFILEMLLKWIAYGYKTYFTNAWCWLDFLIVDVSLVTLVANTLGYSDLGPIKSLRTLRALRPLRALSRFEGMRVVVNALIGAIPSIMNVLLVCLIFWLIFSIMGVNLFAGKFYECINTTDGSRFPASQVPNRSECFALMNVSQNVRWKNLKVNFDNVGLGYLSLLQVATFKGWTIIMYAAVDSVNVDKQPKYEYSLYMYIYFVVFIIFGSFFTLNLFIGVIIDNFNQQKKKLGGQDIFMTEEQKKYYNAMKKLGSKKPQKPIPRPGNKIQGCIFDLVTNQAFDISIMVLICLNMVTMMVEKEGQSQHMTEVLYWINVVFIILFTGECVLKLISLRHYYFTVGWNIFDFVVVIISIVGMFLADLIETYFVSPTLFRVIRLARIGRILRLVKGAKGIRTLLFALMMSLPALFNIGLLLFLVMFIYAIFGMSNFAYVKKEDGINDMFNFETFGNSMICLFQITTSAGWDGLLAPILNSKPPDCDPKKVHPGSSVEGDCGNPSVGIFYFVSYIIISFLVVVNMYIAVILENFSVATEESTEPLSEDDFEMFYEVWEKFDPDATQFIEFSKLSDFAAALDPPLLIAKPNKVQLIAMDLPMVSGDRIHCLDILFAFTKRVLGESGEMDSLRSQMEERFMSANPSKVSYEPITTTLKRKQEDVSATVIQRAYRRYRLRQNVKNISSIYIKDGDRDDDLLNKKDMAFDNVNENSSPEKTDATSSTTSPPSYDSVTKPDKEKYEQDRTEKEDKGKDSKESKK
Chain of hNav1.7 (Q07699 19-218 partner): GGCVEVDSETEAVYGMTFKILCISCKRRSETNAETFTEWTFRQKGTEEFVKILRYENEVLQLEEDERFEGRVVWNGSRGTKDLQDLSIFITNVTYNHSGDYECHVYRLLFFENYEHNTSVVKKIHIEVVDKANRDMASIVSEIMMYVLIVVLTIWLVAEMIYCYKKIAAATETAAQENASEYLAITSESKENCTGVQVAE
Chain of human NaV1.7 (with β1 subunit) stably expressed in HEK-293 cells (Q15858 other isoform, or with tags, fused parts or gaps): as the sequence (Q15858 other isoform, or with tags, fused parts or gaps) above
Chain of human NaV1.7 (with β1 subunit) stably expressed in HEK-293 cells (Q07699 19-218 partner): as the sequence (Q07699 19-218 partner) above

For the molecule `CS(=O)(=O)Nc1nnc2cc(COc3ccc(Cl)c(Cl)c3)c(Br)cn12` [Example 55, N-(6-bromo-7-((3,4-dichlorophenoxy)methyl)-[1,2,4]-triazolo[4,3-a]pyridin-3-yl)-methanesulfonamide], the IC50 in test [1] and in test [2] was 2.6 nM throughout. With `O=S(=O)(Nc1nnc2cc(OCC34CC5CC(CC(C5)C3)C4)c(C3CC3)cn12)N1CCC1` [Example 127, N-(7-(adamantan-1-ylmethoxy)-6-cyclopropyl-[1,2,4]triazolo[4,3-a]pyridin-3-yl)azetidine-1-sulfonamide], the IC50 in test [1] is 9 nM. On to `C=Cc1cn2c(NS(C)(=O)=O)nnc2cc1OCC12CC3CC(CC(C3)C1)C2` [Example 128, N-(7-(adamantan-1-ylmethoxy)-6-vinyl-[1,2,4]triazolo[4,3-a]-pyridin-3-yl)methanesulfonamide], for which the IC50 in test [1] came out at 45 nM.
